According to PubChem BioAssay (NCI):
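Dose response: 5 concentrations. Exposure: 48 h. Format: 96-well plates. Endpoint: linear interpolation; highest concentration if not reached. The concentration for full growth arrest is given as TGI.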

Experiments:
Assay in all cases: NCI tumour cell line growth inhibition, 48 h
MALME-3M melanoma = test system: MALME-3M melanoma
U251 CNS = test system: U251 CNS
OVCAR-5 ovarian = test system: OVCAR-5 ovarian
SF-295 CNS = test system: SF-295 CNS
OVCAR-4 ovarian = test system: OVCAR-4 ovarian
SK-MEL-5 melanoma = test system: SK-MEL-5 melanoma
SF-268 CNS = test system: SF-268 CNS
SW-620 colon = test system: SW-620 colon
KM12 colon = test system: KM12 colon
M14 melanoma = test system: M14 melanoma
SNB-75 CNS = test system: SNB-75 CNS
SN12C renal = test system: SN12C renal
HOP-92 NSCLC = test system: HOP-92 NSCLC
UACC-62 melanoma = test system: UACC-62 melanoma
HT29 colon = test system: HT29 colon
MOLT-4 leukemia = test system: MOLT-4 leukemia
PC-3 prostate = test system: PC-3 prostate
MDA-MB-231 breast = test system: MDA-MB-231 breast
MCF7 breast = test system: MCF7 breast
NCI/ADR-RES ovarian = test system: NCI/ADR-RES ovarian

Structure (SMILES)	TGI (MALME-3M melanoma) [µM]	TGI (U251 CNS) [µM]	TGI (OVCAR-5 ovarian) [µM]	TGI (SF-295 CNS) [µM]	TGI (OVCAR-4 ovarian) [µM]	TGI (SK-MEL-5 melanoma) [µM]	TGI (SF-268 CNS) [µM]	TGI (SW-620 colon) [µM]	TGI (KM12 colon) [µM]	TGI (M14 melanoma) [µM]	TGI (SNB-75 CNS) [µM]	TGI (SN12C renal) [µM]	TGI (HOP-92 NSCLC) [µM]	TGI (UACC-62 melanoma) [µM]	TGI (HT29 colon) [µM]	TGI (MOLT-4 leukemia) [µM]	TGI (PC-3 prostate) [µM]	TGI (MDA-MB-231 breast) [µM]	TGI (MCF7 breast) [µM]	TGI (NCI/ADR-RES ovarian) [µM]
Ic1ncnc2c1ncn2C1CCCO1 (stereo unspecified)	> 100	> 100	> 100	> 100	> 100	> 100	> 100	> 100	> 100	> 100	> 100	> 100	> 100	> 100	> 100	> 100	–	–	–	–
CCN(CC)C(=C(C(Cl)=C(Cl)Cl)[N+](=O)[O-])N(CC)CC	91.6	> 100	> 100	> 100	> 100	> 100	> 100	> 100	> 100	> 100	> 100	> 100	–	> 100	> 100	> 100	> 100	> 100	> 100	> 100
COc1ccc2cc(Oc3ccc(Cl)cc3)c(=O)oc2c1	> 100	–	> 100	> 100	> 100	> 100	> 100	> 100	> 100	> 100	> 100	> 100	> 100	–	> 100	> 100	> 100	> 100	> 100	–
O=[n+]1c2ccccc2n([O-])c2ccccc21	> 100	> 100	> 100	> 100	> 100	> 100	> 100	> 100	–	> 100	> 100	> 100	–	> 100	> 100	81.2	> 100	> 100	> 100	> 100
CN1C2CCC1CC(CCOC(c1ccc(F)cc1)c1ccc(F)cc1)C2 (stereo unspecified)	29.3	28.1	36.7	30.8	38.8	21.3	29.2	41.8	30.8	32.5	30.4	38.2	34.3	–	19.1	44	29.6	29.7	–	36.5
COc1cc2c[n+](C)c3c4cc5c(cc4ccc3c2cc1OC)OCO5	37.5	2.13	4.84	57.7	> 52.4	23.2	39.4	26	7.21	> 88.1	0.767	> 27.8	6.39	4.92	4.6	13.5	> 100	> 100	–	> 100
Cc1cc(C)nc(NS(=O)(=O)c2ccc(Nc3c4ccccc4nc4c(C(=O)NNCCO)cccc34)cc2)n1	> 100	> 100	> 100	> 100	> 100	> 100	> 100	> 100	> 100	> 100	–	> 100	> 100	> 100	> 100	> 100	> 100	> 100	> 100	> 100
COc1nc(C)nc2sc3c(c12)CCCC3	> 100	> 100	> 100	> 100	> 100	> 100	> 100	> 100	> 100	–	> 100	> 100	–	> 100	> 100	> 100	> 100	> 100	> 100	> 100
CC(=O)C(I(OS(=O)(=O)c1ccc(C)cc1)c1ccccc1)=P(c1ccccc1)(c1ccccc1)c1ccccc1	30	98.5	60.2	> 100	37	63.3	80.4	–	38.2	59.3	–	69.2	54.7	17	49.6	> 100	> 100	69.3	> 100	> 100
COC(=O)c1cc2c(o1)Sc1ccccc1NC2=O	–	> 100	> 100	> 100	> 100	> 100	> 100	> 100	> 100	> 100	66.6	> 100	> 100	> 100	> 100	> 100	> 100	> 100	> 100	> 100
COc1cc(C2SCC(=O)N2c2ccccc2Cl)cc(OC)c1OC (stereo unspecified)	–	> 100	> 100	> 100	> 100	> 100	> 100	> 100	> 100	> 100	–	> 100	> 100	> 100	> 100	–	> 100	> 100	> 100	> 100
COC(=O)C(C)NP(=O)(N1CC1)N1CC1 (stereo unspecified)	> 100	> 100	> 100	> 100	> 100	> 100	> 100	> 100	> 100	> 100	> 100	> 100	–	> 100	> 100	> 100	–	–	–	–
CCN(CC)C1Oc2cc3c(cc2C(c2ccc(OC)cc2)C1C)OCO3 (stereo unspecified)	37.3	54.9	58.9	63.1	–	31.9	50.1	> 100	53.2	51.4	59.7	63	57.9	42.1	34.7	41.8	72.6	49.2	47.7	–
